In patent US20010034454A1, “Description anti-mitotic agents which inhibit tubulin polymerization” (BYLOR UNIVERSITY AND ARIZONA DESEASE CONTROL RESEARCH …, priority 1998, published 2001):
In brackets after ≈: the same amount, converted by molar mass. Like-named read-outs stand apart in the source and are kept apart here.

Experiments:
[1] = system: T1, tubulin; experiment: Tubulin polymerization assay; type: biochemical, bovine; conditions: purified tubulin […], GTP-induced, 350 nm; final steady-state number for compounds other than 1A and 10A; read-out: IC50 for inhibition of tubulin polymerization
T1 construct: Purified tubulin is obtained from bovine brain cells as described in Hamel and Lin
Description: The ability of the various above described compounds to inhibit tubulin polymerization can be determined by in vitro assay. A suitable assay system is that described by Bai et al. A method for purifying tubulin from bovine brain cells is described by Hamel and Lin.
IC50 values for tubulin polymerization were determined according to the procedure described in Bai et al. Purified tubulin is obtained from bovine brain cells as described in Hamel and Lin. Various amounts of inhibitor were preincubated for 15 minutes at 37° C. with purified tubulin. After the incubation period, the reaction was cooled and GTP was added to induce tubulin polymerization. Polymerization was then monitored in a Gilford spectrophotometer at 350 nm. The final reaction mixtures (0.25 ml) contained 1.5 mg/ml tubulin, 0.6 mg/ml microtubule-associated proteins (MAPs), 0.5 mM GTP, 0.5 mM MgCl2, 4% DMSO and 0.1 M 4-morpholineethanesulfonate buffer (MES, pH 6.4). […]

[2] = system: P388 leukemia cells; experiment: Cytotoxic assay with P388 leukemia cells; type: cell-based, mouse
From the text: The tubulin polymerization compounds can also be tested for their ability to inhibit tumor cell growth.

[3] = system: NCI-H460; experiment: Growth inhibitory activity, human cancer cell line NCI-H460 (SRB); type: cell-based; conditions: Lung-NSC NCI-H460
Description: (§1) The assay used is described in Monks et al. Briefly, the cell suspensions, diluted according to tho particular cell type and the expected target cell density (5,000-40,000 cells per well based on cell growth characteristics), were added by pipet (100 μl) to 96-well microtiter plates. Inoculates were allowed a preincubation time of 24-28 hours at 37° C. for stabilization. Incubation with the inhibitor compounds lasted for 48 hours in 5% CO2 atmosphere and 100% humidity. Determination of cell growth was done by in situ fixation of cells, followed by staining with a protein-binding dye, sulforhodamine B (SRB), which binds to the basic amino acids of cellular macromolecules. The solubilized stain was measured spectrophotometrically.

[4] = system: BXPC-3; experiment: Human cancer cell line studies, BXPC-3; type: cell-based; conditions: Pancreas adn BXPC-3
Description: as §1

[5] = system: SK-N-SH; experiment: Human cancer cell line studies, SK-N-SH; type: cell-based; conditions: Neuroblast SK-N-SH
Description: as §1

[6] = system: SW1736; experiment: Human cancer cell line studies, SW1736; type: cell-based; conditions: Thyroid ca SW1736
Description: as §1

[7] = system: FADU; experiment: Human cancer cell line studies, FADU; type: cell-based; conditions: Pharynx-sqam FADU
Description: as §1

[8] = system: DU-145; experiment: Human cancer cell line studies, DU-145; type: cell-based; conditions: Prostate DU-145
Description: as §1

[9] = system: RPMI-7951; experiment: Human cancer cell line studies, RPMI-7951; type: cell-based; conditions: Melanoma RPMI-7951
Description: as §1, with “3-(3′,4′,5′-Trimethoxybenzoyl)-2-(4′-methoxyphenyl)-6-methoxybenzo[b]-thiophene was evaluated in terms of growth inhibitory activity against several human cancer cell lines, including ovarian CNS, renal, lung, colon and melanoma lines. The assay” for “The assay”

[10] = system: U251; experiment: Human cancer cell line studies, U251; type: cell-based; conditions: CNS U251
Description: as §1, with “3-(3′,4′,5′-Trimethoxybenzoyl)-2-(4′-methoxyphenyl)-6-methoxybenzo[b]-thiophene was evaluated in terms of growth inhibitory activity against several human cancer cell lines, including ovarian CNS, renal, lung, colon and melanoma lines. The assay” for “The assay”

[11] = P388 mouse leukemia, dosage required to inhibit 50% of cell growth, read-out: ED50 (the source's name)
[12] = Homo sapiens, SW-1736, read-out: GI50
[13] = Homo sapiens, U-251, read-out: GI50
[14] = P388 mouse leukemia, dosage required to inhibit 50% of cell growth
[15] = Mus musculus, P388, read-out: ED50

| SMILES | IC50 [1] | IC50 [2, 11] | GI50 ([3]; Homo sapiens, read-out: GI50) | GI50 ([4]; Homo sapiens, read-out: GI50) | GI50 ([5]; Homo sapiens, read-out: GI50) | GI50 [6, 12] | GI50 ([7]; Homo sapiens, read-out: GI50) | GI50 ([8]; Homo sapiens, read-out: GI50) | GI50 ([9]; Homo sapiens, read-out: GI50) | GI50 [10, 13] | other results |
| --- | --- | --- | --- | --- | --- | --- | --- | --- | --- | --- | --- |
| COc1ccc(-c2sc3cc(OC)ccc3c2C(=O)c2cc(OC)c(OC)c(OC)c2)cc1 [Compound 1A, 3-(3′,4′,5′-trimethoxybenzoyl)-2-(4′-methoxyphenyl)-6-methoxybenzo[b]thiophene] | – | – | – | – | – | – | – | – | – | – | melting point: 131 to 133 °C |
| COc1ccc(-c2sc3cc(OC)ccc3c2C(=O)c2ccc(OC)c(OC)c2)cc1 [Compound 4A, 3-(3′,4′-dimethoxybenzoyl)-2-(4′-methoxyphenyl)-6-methoxybenzo[b]thiophene] | > 40000 nM | > 10 µg/mL | 4.6 µg/mL (≈ 10.6 µM) | 5.2 µg/mL (≈ 12 µM) | 3.2 µg/mL (≈ 7.36 µM) | > 10 µg/mL | 4.7 µg/mL (≈ 10.8 µM) | > 10 µg/mL | – | – | – |
| COc1ccc(C(=O)c2c(-c3ccc(OC)cc3)sc3cc(OC)ccc23)cc1 [Compound 5A, 3-(4′-methoxybenzoyl)-2-(4′-methoxyphenyl)-6-methoxybenzo[b]thiophene] | – | > 100 µg/mL | > 10 µg/mL | 8.9 µg/mL (≈ 22 µM) | – | – | > 10 µg/mL | > 10 µg/mL | > 10 µg/mL | > 10 µg/mL | – |
| CCOc1ccc(C(=O)c2c(-c3ccc(OC)cc3)sc3cc(OC)ccc23)cc1 [Compound 6A, 3-(4′-ethoxybenzoyl)-2-(4′-methoxyphenyl)-6-methoxybenzo[b]thiophene] | – | > 100 µg/mL | 2.4 µg/mL (≈ 5.73 µM) | 0.65 µg/mL (≈ 1.55 µM) | – | – | 0.48 µg/mL (≈ 1.15 µM) | 3.9 µg/mL (≈ 9.32 µM) | 3.2 µg/mL (≈ 7.65 µM) | 0.43 µg/mL (≈ 1.03 µM) | – |
| CCOc1cc(C(=O)c2c(-c3ccc(OC)cc3)sc3cc(OC)ccc23)cc(OCC)c1OCC [Compound 7A, 3-(3′,4′,5′-triethoxybenzoyl)-2-(4′-methoxyphenyl)-6-methoxybenzo[b]thiophene] | – | > 100 µg/mL | > 10 µg/mL | > 10 µg/mL | – | – | > 10 µg/mL | > 10 µg/mL | > 10 µg/mL | > 10 µg/mL | – |
| COc1ccc(-c2sc3cc(OC)ccc3c2C(=O)CCc2cc(OC)c(OC)c(OC)c2)cc1 [Compound 8A, 3-[3′-(3′,4′,5′-trimethoxyphenyl)propionyl]-2-(4′-methoxyphenyl)-6-methoxybenzo[b]thiophene] | – | – | – | – | – | – | – | – | – | – | ED50 [2, 14]: >10 µg/mL; GI50 [3]: 3.8 µg/mL (≈ 7.71 µM); GI50 [4]: >10 µg/mL; GI50 [7]: 9.1 µg/mL (≈ 18.5 µM); GI50 [8]: >10 µg/mL; GI50 [9]: >10 µg/mL; GI50 [10]: 4.5 µg/mL (≈ 9.14 µM) |
| CCOc1ccc(-c2sc3cc(OCC)ccc3c2C(=O)c2cc(OCC)c(OCC)c(OCC)c2)cc1 [Compound 9A, 3-(3′,4′,5′-triethoxybenzoyl)-2-(4′-ethoxyphenyl)-6-ethoxybenzo[b]thiophene] | – | > 10 µg/mL | > 10 µg/mL | > 10 µg/mL | – | – | > 10 µg/mL | > 10 µg/mL | > 10 µg/mL | > 10 µg/mL | – |
| COc1ccc(-c2sc3cc(OC)ccc3c2C(=O)Cc2ccccc2)cc1 [Compound 20A, 3-(phenylacetyl)-2-(4′-methoxyphenyl)-6-methoxybenzo[b]thiophene] | – | > 10 µg/mL | > 10 µg/mL | > 10 µg/mL | – | – | 9.2 µg/mL (≈ 23.7 µM) | > 10 µg/mL | > 10 µg/mL | > 10 µg/mL | – |
| COc1ccc(-c2sc3cc(OC)ccc3c2C(=O)Cc2cc(OC)c(OC)c(OC)c2)cc1 [Compound 21A] | – | – | – | – | – | – | – | – | – | – | ED50 [2, 14]: >10 µg/mL; GI50 [3]: >10 µg/mL; GI50 [4]: 9.8 µg/mL (≈ 20.5 µM); GI50 [7]: 7.9 µg/mL (≈ 16.5 µM); GI50 [8]: >10 µg/mL; GI50 [9]: >10 µg/mL; GI50 [10]: >10 µg/mL |
| COc1ccc(-c2sc3cc(OC)ccc3c2Oc2cc(OC)c(OC)c(OC)c2)cc1 [Compound 23B, 3-(3′,4′,5′-trimethoxyphenoxy)-2-(4′-methoxyphenyl)-6-methoxybenzo[b]thiophene] | 1400 nM | – | 0.31 µg/mL (≈ 0.685 µM) | 0.23 µg/mL (≈ 0.508 µM) | 0.063 µg/mL (≈ 0.139 µM) | 0.73 µg/mL (≈ 1.61 µM) | 0.098 µg/mL (≈ 0.217 µM) | 0.42 µg/mL (≈ 0.928 µM) | – | – | IC50 [2, 15]: 3.09 µg/mL (≈ 6.83 µM) |
| COc1cc(/C=C\c2cc(OC)c(OC)c(OC)c2)ccc1N=[N+]=[N-] [Compound 30E, (Z)-1-(4′azido-3′-methoxyphenyl)-2-(3″,4″,5″-trimethoxyphenyl)ethene] | 1500 nM | – | 0.35 µg/mL (≈ 1.03 µM) | 0.3 µg/mL (≈ 0.879 µM) | 0.24 µg/mL (≈ 0.703 µM) | 0.45 µg/mL (≈ 1.32 µM) | 0.42 µg/mL (≈ 1.23 µM) | 0.7 µg/mL (≈ 2.05 µM) | – | – | – |
| COc1ccc(/C=C\c2cc(OC)c(OC)c(OC)c2)cc1[N+](=O)[O-] [Compound 31E, (Z)-1-(4″-methoxy-3″-nitrophenyl)-2-(3′,4′,5′-trimethoxyphenyl)ethene] | – | – | – | – | – | – | – | – | – | – | ED50 [2, 14]: 4.0 µg/mL (≈ 11.6 µM); GI50 [3]: 0.043 µg/mL (≈ 0.125 µM); GI50 [4]: 0.037 µg/mL (≈ 0.107 µM); GI50 [5]: >10 µg/mL; GI50 [6]: 0.056 µg/mL (≈ 0.162 µM); GI50 [7]: 2.6 µg/mL (≈ 7.53 µM); GI50 [8]: 0.046 µg/mL (≈ 0.133 µM) |
| COc1ccc(/C=C\c2cc(OC)c(OC)c(OC)c2)cc1N [Compound 33E, (Z)-1-(3′-amino-4′-methoxyphenyl)-2-(3″,4″,5″-trimethoxyphenyl)ethene] | […] | – | 0.00068 µg/mL (≈ 0.00216 µM) | 0.0013 µg/mL (≈ 0.00412 µM) | < 0.001 µg/mL | < 0.001 µg/mL | < 0.001 µg/mL | 0.00096 µg/mL (≈ 0.00304 µM) | – | – | – |
| COc1ccc(/C=C\c2cc(OC)c(OC)c(OC)c2)cc1N=[N+]=[N-] [Compound 34E, (Z)-1-(3′azido-4′-methoxyphenyl)-2-(3″,4″,5″-trimethoxyphenyl)ethene] | 1300 nM | – | 0.0056 µg/mL (≈ 0.0164 µM) | 0.005 µg/mL (≈ 0.0146 µM) | 0.0033 µg/mL (≈ 0.00967 µM) | 1.2 µg/mL (≈ 3.52 µM) | 0.0076 µg/mL (≈ 0.0223 µM) | 0.0091 µg/mL (≈ 0.0267 µM) | – | – | IC50 [2, 15]: 0.0384 µg/mL (≈ 0.112 µM) |
